The record followed here is PubChem BioAssay (NCI).

Each structure is given as a SMILES string.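 Briefly, cells in 96-well plates were exposed to five compound concentrations for 48 h, and endpoints were estimated by linear interpolation. At the GI50, growth is halved. The concentration for full growth arrest is given as TGI.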 A value given as a limit tells only on which side of the number the result lay.

The GI50 is the concentration that inhibits growth by half. The TGI is the concentration giving total growth inhibition.

Among the test systems are A498 renal; HCC-2998 colon; IGROV1 ovarian; K-562 leukemia; RPMI-8226 leukemia; RXF 393 renal; SF-268 CNS; SK-MEL-28 melanoma; SK-MEL-5 melanoma; SNB-75 CNS.
Experiment in all cases: DTP human tumour cell line panel, 48 h

Consider `CCC(CO)Nc1nc2ccc(Cl)cc2c2ccccc12` (stereo not given), for which the GI50 in the assay on A498 renal was 4.6 µM; with HCC-2998 colon it was 2.82 µM; in the assay with IGROV1 ovarian it was 11.2 µM; with K-562 leukemia, 3.01 µM; with RPMI-8226 leukemia, 4.04 µM; in the assay with RXF 393 renal, 2.3 µM. Besides, the GI50 in the assay on SF-268 CNS was 10.7 µM; with SK-MEL-28 melanoma it was 14.3 µM; in the assay with SK-MEL-5 melanoma it was 11.2 µM; in the assay with SNB-75 CNS it was 4.38 µM. In addition, the total growth inhibition concentration (TGI) was 16 µM in the assay with A498 renal; 10.6 µM with HCC-2998 colon; 23.5 µM in the assay with IGROV1 ovarian; 11.5 µM with K-562 leukemia; 26.4 µM in the assay on RPMI-8226 leukemia; 5.93 µM in the assay on RXF 393 renal. Besides, the concentration for total growth inhibition (TGI) in the assay with SF-268 CNS was 23.4 µM; in the assay with SK-MEL-28 melanoma it was 27.3 µM; in the assay on SK-MEL-5 melanoma it was 23.3 µM; with SNB-75 CNS, 18 µM.

For the molecule `COC(CN1C(=O)c2cccc3cccc(c23)C1=O)OC`, the TGI in the assay on A498 renal, in the assay with HCC-2998 colon, in the assay with IGROV1 ovarian, with K-562 leukemia, in the assay with RPMI-8226 leukemia and with RXF 393 renal was over 100 µM throughout. In addition, the concentration for total growth inhibition (TGI) in the assay with SF-268 CNS, in the assay on SK-MEL-28 melanoma, with SK-MEL-5 melanoma and with SNB-75 CNS was over 100 µM each time.

`O=C1C=C(Cl)C(=O)C(c2ccc(Cl)cc2)=C1`: the TGI in the assay with A498 renal amounted to 50.8 µM; in the assay on HCC-2998 colon it was 34.2 µM; in the assay with IGROV1 ovarian, 30.8 µM; in the assay with K-562 leukemia, 23.8 µM; in the assay with RPMI-8226 leukemia it was 83.8 µM; in the assay with RXF 393 renal, 34 µM. For the same molecule, the total growth inhibition concentration (TGI) in the assay with SF-268 CNS was 42.3 µM; with SK-MEL-28 melanoma it was 43.4 µM; in the assay on SK-MEL-5 melanoma it was 34.3 µM; with SNB-75 CNS it was 59.8 µM.

As for `O=S(=O)(NC1=NCCN1C(=S)SN1CCn2c1nsc2=S)c1ccc(OC(F)(F)F)cc1`, the GI50 in the assay with A498 renal was 15.9 µM; in the assay with HCC-2998 colon it was 12.7 µM; with IGROV1 ovarian, 11.4 µM; in the assay with K-562 leukemia, 4.02 µM; in the assay with RPMI-8226 leukemia, 6.1 µM; with RXF 393 renal, 2.77 µM. Also, the GI50 was 11 µM in the assay with SF-268 CNS, 22.7 µM with SK-MEL-28 melanoma, 8.49 µM with SK-MEL-5 melanoma and 14.7 µM in the assay on SNB-75 CNS. Moreover, the concentration for total growth inhibition (TGI) with A498 renal is 29.7 µM; in the assay on HCC-2998 colon it was 26.1 µM; with IGROV1 ovarian, 29.1 µM; with K-562 leukemia, 19.8 µM; in the assay with RPMI-8226 leukemia, over 100 µM; in the assay on RXF 393 renal, 8.1 µM. For the same molecule, the total growth inhibition concentration (TGI) in the assay with SF-268 CNS came to 98.1 µM; with SK-MEL-28 melanoma, 64 µM; in the assay with SK-MEL-5 melanoma, 21.8 µM; in the assay with SNB-75 CNS, 34.4 µM.

For `O=C(CC1(O)C(=O)Nc2c(Cl)cc(Cl)cc21)c1ccc(Br)cc1Br` (stereo not given), the total growth inhibition concentration (TGI) is 40 µM in the assay on A498 renal; 30.6 µM with HCC-2998 colon; 34.7 µM in the assay on IGROV1 ovarian; 9 µM in the assay on K-562 leukemia; 21.6 µM in the assay on RPMI-8226 leukemia; 26.2 µM in the assay on RXF 393 renal. Besides, the TGI in the assay on SF-268 CNS was determined as 24 µM; in the assay with SK-MEL-28 melanoma it was 27.7 µM; with SK-MEL-5 melanoma, 14.6 µM; in the assay with SNB-75 CNS it was 36.6 µM.

Turning to `c1ccc2cc(-c3cc(-c4cc(-c5ccc6ccccc6c5)on4)no3)ccc2c1`, the TGI in the assay with A498 renal, in the assay on HCC-2998 colon, in the assay on IGROV1 ovarian, in the assay with K-562 leukemia, in the assay with RPMI-8226 leukemia and in the assay on RXF 393 renal was over 100 µM throughout. The TGI in the assay on SF-268 CNS, in the assay with SK-MEL-28 melanoma, in the assay with SK-MEL-5 melanoma and with SNB-75 CNS was over 100 µM throughout.

As to `O=C(O)c1ccccc1[Se][Se]c1ccccc1C(=O)O`, the TGI in the assay on A498 renal, with HCC-2998 colon, in the assay on IGROV1 ovarian, in the assay on K-562 leukemia, with RPMI-8226 leukemia and in the assay with RXF 393 renal was over 100 µM each time. The TGI with SF-268 CNS, in the assay on SK-MEL-28 melanoma, with SK-MEL-5 melanoma and in the assay on SNB-75 CNS was over 100 µM throughout.

Consider `COc1cc(/C=N/NC(=O)c2ccc(C(F)(F)F)nc2Nc2ccc(Cl)cc2C)ccc1O`, for which the GI50 with A498 renal is 3.1 µM; with HCC-2998 colon, 1.98 µM; in the assay with IGROV1 ovarian it was 0.838 µM; in the assay with K-562 leukemia, 1.31 µM; with RPMI-8226 leukemia, 2.11 µM; in the assay with RXF 393 renal it was 3.2 µM. The GI50 is 1.78 µM with SF-268 CNS, 2.74 µM in the assay on SK-MEL-28 melanoma, 1.41 µM in the assay on SK-MEL-5 melanoma and 4.79 µM in the assay with SNB-75 CNS. In addition, the TGI with A498 renal was 14.5 µM; in the assay with HCC-2998 colon it was 8.45 µM; in the assay with IGROV1 ovarian, 7.02 µM; in the assay with K-562 leukemia it was 7.17 µM; in the assay with RPMI-8226 leukemia it was 6.1 µM; in the assay on RXF 393 renal, 14.3 µM. Further, the TGI in the assay with SF-268 CNS stood at 13.3 µM; in the assay with SK-MEL-28 melanoma, 14.3 µM; in the assay with SK-MEL-5 melanoma it was 3.28 µM; in the assay with SNB-75 CNS, 21.3 µM.

For `O=CC[C@H]1C(=O)C[C@@H]2CCC[C@@H]21`, the total growth inhibition concentration (TGI) in the assay with A498 renal, in the assay with HCC-2998 colon, in the assay on IGROV1 ovarian, in the assay with K-562 leukemia, in the assay with RPMI-8226 leukemia and with RXF 393 renal was over 100 µM throughout. For the same molecule, the total growth inhibition concentration (TGI) with SF-268 CNS, in the assay with SK-MEL-28 melanoma, in the assay on SK-MEL-5 melanoma and in the assay on SNB-75 CNS was over 100 µM in each case.

As to `NC(=O)c1cccc2cn(-c3ccc([C@@H]4CCCNC4)cc3)nc12`, the GI50 in the assay on A498 renal was 19.2 µM; in the assay on HCC-2998 colon, 14.1 µM; with IGROV1 ovarian, 15.3 µM; in the assay with K-562 leukemia, 14.1 µM; in the assay with RPMI-8226 leukemia, 22.5 µM; in the assay with RXF 393 renal it was 13.5 µM. Also, the GI50 in the assay with SF-268 CNS is 9.13 µM; in the assay on SK-MEL-28 melanoma it was 16.3 µM; with SK-MEL-5 melanoma, 13.8 µM; in the assay on SNB-75 CNS it was 11.8 µM. Also, the TGI in the assay with A498 renal is 40.8 µM; with HCC-2998 colon it was 34.3 µM; with IGROV1 ovarian, 52.3 µM; with K-562 leukemia it was 36.8 µM; in the assay on RPMI-8226 leukemia, over 80.6 µM; with RXF 393 renal, 27.1 µM. Besides, the TGI was determined as 28.5 µM in the assay with SF-268 CNS, 30.7 µM in the assay on SK-MEL-28 melanoma, 27 µM with SK-MEL-5 melanoma and 25.5 µM in the assay with SNB-75 CNS.
